Data reported in patent publication US6737383B1, “Herbicidal oxadiazolidines” (priority 1999, dated 2004).

Columns and labels:
[1] = test system: bedstraw; assay: Test B pre/postemergence bedstraw; format: in vivo, Galium aparine
Method in brief: (§1)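 Response is a visual 0-to-10 score relative to untreated plants, where 0 means no effect and 10 means complete control, taken twelve to sixteen days after application. Treatments went onto soil at planting and onto foliage of 1- to 4-leaf plants, using a surfactant-containing non-phytotoxic solvent.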

[2] = test system: blackgrass; assay: Test B pre/postemergence blackgrass; format: in vivo, Alopecurus myosuroides
Method in brief: as §1

[3] = test system: surinam grass; assay: Test B pre/postemergence surinam grass; format: in vivo, Brachiaria decumbens
Method in brief: as §1

[4] = test system: cocklebur; assay: Test B pre/postemergence cocklebur; format: in vivo, Xanthium strumarium
Method in brief: as §1

[5] = test system: corn; assay: Test B pre/postemergence corn; format: in vivo, Zea mays
Method in brief: as §1

[6] = test system: giant foxtail; assay: Test B pre/postemergence giant foxtail; format: in vivo, Setaria faberii
Method in brief: as §1

[7] = test system: morningglory; assay: Test B pre/postemergence morningglory; format: in vivo, Ipomoea hederacea
Method in brief: as §1

[8] = test system: pigweed; assay: Test B pre/postemergence pigweed; format: in vivo, Amaranthus retroflexus
Method in brief: as §1

[9] = test system: rape; assay: Test B pre/postemergence rape; format: in vivo, Brassica napus
Method in brief: as §1

[10] = test system: soybean; assay: Test B pre/postemergence soybean; format: in vivo, Glycine max
Method in brief: as §1

[11] = test system: sugar beet; assay: Test B pre/postemergence sugar beet; format: in vivo, Beta vulgaris
Method in brief: as §1

[12] = test system: velvetleaf; assay: Test B pre/postemergence velvetleaf; format: in vivo, Abutilon theophrasti
Method in brief: as §1

[13] = test system: wheat; assay: Test B pre/postemergence wheat; format: in vivo, Triticum aestivum
Method in brief: as §1

[14] = test system: wild oat; assay: Test B pre/postemergence wild oat; format: in vivo, Avena fatua
Method in brief: as §1

[15] = test system: rice; assay: Test B flood test rice; format: in vivo, Oryza sativa
Method in brief: (§2)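 Read-out is a visual response score from 0 (no effect) to 10 (complete control), assigned by comparison with untreated controls. Treatment was applied at the 2-leaf stage, and plants stayed in the greenhouse for twelve to sixteen days before scoring.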

[16] = test system: smallflower flatsedge; assay: Test B flood test smallflower flatsedge; format: in vivo, Cyperus difformis
Method in brief: as §2

[17] = Postemergence, Rate 62 g/ha, scale 0 to 10, 0 is no effect, 10 is complete control
[18] = Postemergence, Rate 250 g/ha, scale 0 to 10, 0 no effect, 10 complete control
[19] = Preemergence, Rate 62 g/ha, scale 0 to 10, 0 is no effect, 10 is complete control
[20] = Preemergence, Rate 125 g/ha, scale 0 to 10 (0 no effect, 10 complete control)
[21] = Preemergence, Rate 250 g/ha, scale of 0 to 10 where 0 is no effect and 10 is complete control
[22] = Preemergence, Rate 500 g/ha, scale 0 (no effect) to 10 (complete control)
[23] = Rate 125 g/ha, Postemergence, scale 0 to 10, 0 no effect, 10 complete control
[24] = Rate 500 g/ha, Postemergence, 0 to 10 scale (0 no effect, 10 complete control)
[25] = Rate 125 g/ha, Postemergence section (flood test species), scale 0 to 10, 0 no effect, 10 complete control
[26] = flood test, listed under Postemergence, Rate 250 g/ha, scale 0 to 10, 0 no effect, 10 complete control

## CC(C)Oc1cc(-n2c(=O)on(C(=O)N(c3ccc(F)cc3)C(C)C)c2=O)c(Cl)cc1Cl [Compound 43]
[1]; [17]
  Bedstraw plant response rating: 0
[1]; [18]
  Bedstraw plant response rating: 0
[1]; [19]
  Plant response rating, Bedstraw: 0
[1]; [20]
  Plant response rating, Bedstraw: 0
[1]; [21]
  Plant response rating, Bedstraw: 0
[1]; [22]
  Bedstraw plant response rating: 2
[1]; [23]
  Bedstraw plant response rating: 0
[1]; [24]
  Bedstraw plant response rating: 2
[2]; [17]
  Blackgrass plant response rating: 0
[2]; [18]
  Blackgrass plant response rating: 0
[2]; [19]
  Plant response rating, Blackgrass: 0
[2]; [20]
  Plant response rating, Blackgrass: 0
[2]; [21]
  Plant response rating, Blackgrass: 0
[2]; [22]
  Blackgrass plant response rating: 1
[2]; [23]
  Blackgrass plant response rating: 0
[2]; [24]
  Blackgrass plant response rating: 4
[3]; [17]
  B. signalgrass plant response rating: 0
[3]; [18]
  B. signalgrass plant response rating: 0
[3]; [19]
  Plant response rating, B. signalgrass: 0
[3]; [20]
  Plant response rating, B. signalgrass: 0
[3]; [21]
  Plant response rating, B. signalgrass: 0
[3]; [22]
  B. signalgrass plant response rating: 0
[3]; [23]
  B. signalgrass plant response rating: 0
[3]; [24]
  B. signalgrass plant response rating: 0
[4]; [17]
  Cocklebur plant response rating: 0
[4]; [18]
  Cocklebur plant response rating: 0
[4]; [19]
  Plant response rating, Cocklebur: 0
[4]; [20]
  Plant response rating, Cocklebur: 0
[4]; [21]
  Plant response rating, Cocklebur: 0
[4]; [22]
  Cocklebur plant response rating: 0
[4]; [23]
  Cocklebur plant response rating: 0
[4]; [24]
  Cocklebur plant response rating: 1
[5]; [17]
  Corn plant response rating: 0
[5]; [18]
  Corn plant response rating: 0
[5]; [19]
  Plant response rating, Corn: 0
[5]; [20]
  Plant response rating, Corn: 0
[5]; [21]
  Plant response rating, Corn: 0
[5]; [22]
  Corn plant response rating: 0
[5]; [23]
  Corn plant response rating: 0
[5]; [24]
  Corn plant response rating: 0
[6]; [17]
  Giant foxtail plant response rating: 0
[6]; [18]
  Giant foxtail plant response rating: 0
[6]; [19]
  Plant response rating, Giant foxtail: 0
[6]; [20]
  Plant response rating, Giant foxtail: 0
[6]; [21]
  Plant response rating, Giant foxtail: 0
[6]; [22]
  Giant foxtail plant response rating: 0
[6]; [23]
  Giant foxtail plant response rating: 0
[6]; [24]
  Giant foxtail plant response rating: 0
[7]; [17]
  Morningglory plant response rating: 2
[7]; [18]
  Morningglory plant response rating: 3
[7]; [19]
  Plant response rating, Morningglory: 0
[7]; [20]
  Plant response rating, Morningglory: 0
[7]; [21]
  Plant response rating, Morningglory: 0
[7]; [22]
  Morningglory plant response rating: 0
[7]; [23]
  Morningglory plant response rating: 3
[7]; [24]
  Morningglory plant response rating: 4
[8]; [17]
  Redroot pigweed plant response rating: 1
[8]; [19]
  Plant response rating, Redroot pigweed: 0
[8]; [20]
  Plant response rating, Redroot pigweed: 0
[8]; [21]
  Plant response rating, Redroot pigweed: 0
[8]; [22]
  Redroot pigweed plant response rating: 4
[8]; [23]
  Redroot pigweed plant response rating: 2
[8]; [24]
  Redroot pigweed plant response rating: 6
[9]; [17]
  Rape plant response rating: 0
[9]; [18]
  Rape plant response rating: 0
[9]; [19]
  Plant response rating, Rape: 0
[9]; [20]
  Plant response rating, Rape: 0
[9]; [21]
  Plant response rating, Rape: 0
[9]; [22]
  Rape plant response rating: 0
[9]; [23]
  Rape plant response rating: 0
[10]; [17]
  Soybean plant response rating: 2
[10]; [18]
  Soybean plant response rating: 3
[10]; [19]
  Plant response rating, Soybean: 0
[10]; [20]
  Plant response rating, Soybean: 0
[10]; [21]
  Plant response rating, Soybean: 0
[10]; [22]
  Soybean plant response rating: 0
[10]; [23]
  Soybean plant response rating: 3
[11]; [17]
  Sugarbeets plant response rating: 0
[11]; [18]
  Sugarbeets plant response rating: 1
[11]; [19]
  Plant response rating, Sugarbeets: 0
[11]; [20]
  Plant response rating, Sugarbeets: 0
[11]; [21]
  Plant response rating, Sugarbeets: 0
[11]; [22]
  Sugarbeets plant response rating: 0
[11]; [23]
  Sugarbeets plant response rating: 1
[12]; [17]
  Velvetleaf plant response rating: 0
[12]; [18]
  Velvetleaf plant response rating: 0
[12]; [19]
  Plant response rating, Velvetleaf: 0
[12]; [20]
  Plant response rating, Velvetleaf: 0
[12]; [21]
  Plant response rating, Velvetleaf: 0
[12]; [22]
  Velvetleaf plant response rating: 0
[12]; [23]
  Velvetleaf plant response rating: 0
[13]; [17]
  Wheat plant response rating: 0
[13]; [18]
  Wheat plant response rating: 0
[13]; [19]
  Plant response rating, Wheat: 0
[13]; [20]
  Plant response rating, Wheat: 0
[13]; [21]
  Plant response rating, Wheat: 0
[13]; [22]
  Wheat plant response rating: 0
[13]; [23]
  Wheat plant response rating: 0
[14]; [17]
  Wild oats plant response rating: 0
[14]; [18]
  Wild oats plant response rating: 0
[14]; [20]
  Plant response rating, Wild oats: 0
[14]; [21]
  Plant response rating, Wild oats: 0
[14]; [22]
  Wild oats plant response rating: 0
[14]; [23]
  Wild oats plant response rating: 0
[15]; [17]
  Rice plant response rating: 0
[15]; [25]
  Rice plant response rating: 0
[15]; Rate 500 g/ha, Postemergence section of Table B, 0 to 10 scale (0 no effect, 10 complete control)
  Rice plant response rating: 0
[15]; [26]
  Rice plant response rating: 0
[16]; [17]
  S. Flatsedge plant response rating: 0
[16]; [25]
  S. Flatsedge plant response rating: 0
[16]; [26]
  S. Flatsedge plant response rating: 0
